Laboratory results published in patent publication EP4122461A1 (priority 2021, dated 2023).

What was measured:
[1] = tested on: SARS-2-S-driven cell entry; assay type: cell-based, SARS-CoV-2
[2] = tested on: SARS-CoV-2 isolate hCoV-19/Germany/FI1103201/2020; assay type: cell-based; details: PCLS from a single donor; Fig. 1C
[3] = blood and urine; cited from earlier work
[4] = across a 100-fold dose range; cohort of healthy subjects; cited from earlier work
[5] = in vivo; cited from earlier work

With `CN(C)C(=O)COC(=O)Cc1ccc(OC(=O)c2ccc(NC(=N)N)cc2)cc1` [Camostat, camostat] as the compound, how does the IC50 [1] read?
The IC50 was 151 nM.

And the “inhibitory effects in human PCLS” value [2]?
Its value is “comparable”.

With `N=C(N)c1ccc2cc(OC(=O)c3ccc(N=C(N)N)cc3)ccc2c1` [Nafamostat, nafamostat] as the compound, how does the IC50 [1] read?
The IC50 was 11.8 nM.

With `COC(=O)[C@H](Cc1cccc(C(=N)N)c1)[C@@H](C)NC(=O)c1ccc(-c2cc[n+]([O-])cc2)cc1` [Otamixaban, otamixaban] as the compound, how does the “stability of ester and amide groups” value [3] read?
The value was “stable”.

And the IC50 [1]?
The IC50 was 18700 nM.

What about the “SARS-CoV-2 cell entry is inhibited” value [1] of the same compound?
The value was 36%.

And the tolerability [4]?
The tolerability was “well tolerated”.

What about the “plasma distribution and elimination” value [5] of the same compound?
The value was “rapid plasma distribution and elimination”.

What about the “inhibitory effects in human PCLS” value [2] of the same compound?
The value was “comparable”.
